Where two headings read alike, the source gives them in different places.
Tests used:
[1] = tested on: CYP74C3
Method: (a) UV/Visible spectra of ligand-bound forms of oxidised native CYP74C3 (2 μM, ? ); KCN (100 mM, ——); imidazole (50 mM, ---------); DMPhP (250 mM, —[…] […]—). The spectrum of dithionite (50 mM) reduced CYP74C3 (2 μM) before ([…]) and after (—[…]—) reaction with CO (˜1 mM) are also shown. […] (c) Stopped-flow diode array spectral changes over a period of 200 s for cyanide (100 mM) binding to native oxidised CYP74C3 (2 μM).
Spectra and steady-state kinetic analyses were performed using a dual beam scanning Shimadzu UV/Visible spectrophotometer (Model UV-1601, Shimadzu, Milton Keynes, U.K.). […] Stopped flow-UV/Visible data were analysed with the KineticAsyst 3.0 software package (Hi-Tech Scientific). Ligand-binding studies were carried out with both the native oxidised and the dithionite ion reduced forms of CYP74C3.

[2] = tested on: AOS; details: ref [23′]; cited from earlier work
[3] = tested on: CYP74C3; type: biochemical, Medicago truncatula
Method: Protein content was estimated using the Bradford or bicinchoninic acid (BCA) assay (Pierce, Perbio Science, Cramlington, Northumberland, U.K.) according to the manufacturer's instructions. Bovine serum albumin was used as a standard. […] Substrate specificity was determined by comparing kcat/Km.

[4] = tested on: Medicago truncatula hydroperoxide lyase CYP74C3 (HPLF), recombinant, wild type, N-terminal histidine-tagged; details: for Km / kcat: pH 6.5, 25° C.
[5] = target: T1, CYP74A1 (Arabidopsis thaliana, UniProt Q96242)
T1 sequence (Q96242 with tags, fused parts or gaps): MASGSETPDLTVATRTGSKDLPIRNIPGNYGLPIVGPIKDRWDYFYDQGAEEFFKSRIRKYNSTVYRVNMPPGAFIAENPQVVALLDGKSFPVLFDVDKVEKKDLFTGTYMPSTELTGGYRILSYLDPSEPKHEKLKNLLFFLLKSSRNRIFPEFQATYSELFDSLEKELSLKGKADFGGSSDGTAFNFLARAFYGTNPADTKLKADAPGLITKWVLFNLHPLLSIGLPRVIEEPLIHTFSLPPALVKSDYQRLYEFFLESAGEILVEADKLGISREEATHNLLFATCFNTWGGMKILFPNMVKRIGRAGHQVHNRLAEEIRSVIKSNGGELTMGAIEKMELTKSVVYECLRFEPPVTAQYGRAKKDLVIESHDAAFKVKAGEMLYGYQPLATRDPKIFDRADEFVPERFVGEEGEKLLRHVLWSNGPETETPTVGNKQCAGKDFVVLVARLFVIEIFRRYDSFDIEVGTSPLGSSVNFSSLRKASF

[6] = tested on: CYP74C3; details: cited from earlier work
[7] = +Detergent (purified in detergent-buffer)
[8] = Reactivated with 5 mM Emulphogene
[9] = detergent-buffer vs detergent-free
[10] = monomer-micelle complex vs detergent-free monomer

Structure (SMILES): c1c[nH]cn1 [Imidazole, imidazole]
- binding of ligand to CYP74C3 [1]: shown to bind
- k1 of biphasic ligand binding ([1]; pH 6.5): 2.5±0.1×10^−2 s^−1
- k2 of biphasic ligand binding ([1]; pH 6.5): 0.33±0.03×10^−2 s^−1
- inhibition of AOS [2]: potent inhibitor
- activity of CYP74C3 after elution from IMAC with the ligand [3]: virtually inactive enzyme

Structure (SMILES): CC/C=C\C[C@@H](/C=C/C=C\CCCCCCCC(=O)O)OO [13α-HPOT, 13-S-hydroperoxy-9Z,11E,15Z-octadecatrienoic acid]
- Substrate specificity (% 13α-HPOT), from kcat/Km [4, 7]: 100%
- kcat/Km [4, 7]: 155.8 µM⁻¹ s⁻¹
- Km [4, 7]: 3.3 µM
- kcat [4, 7]: 514 ± 11 s⁻¹
- Substrate specificity (% 13α-HPOT), from kcat/Km ([4]; Detergent-free): 100%
- kcat/Km ([4]; Detergent-free): 3.2 µM⁻¹ s⁻¹
- Km ([4]; Detergent-free): 20.9 ± 1.7 µM
- kcat ([4]; Detergent-free): 68 ± 5 s⁻¹
- Substrate specificity (% 13α-HPOT), from kcat/Km [4, 8]: 100%
- kcat/Km [4, 8]: 149.3 µM⁻¹ s⁻¹
- Km [4, 8]: 4.4 ± 0.6 µM
- Km / affinity, fold change on detergent removal (Km higher) [4, 9]: 6 fold
- kcat, fold difference (detergent-buffer higher than detergent-free) [4, 9]: approximately 8 fold
- catalytic efficiency (kcat/Km) of detergent-free enzyme as % of enzyme purified without detergent removal ([4]; detergent-free vs detergent-buffer): 2%
- CYP74C3, fold faster than CYP74A1 (kcat/Km) ([4]; in detergent micelles, CYP74C3 vs CYP74A1): 2.6 fold
- fold increase in kcat/Km upon micelle binding ([4]; micelle-bound vs detergent-free): ~50 fold
- Km of monomer-micelle complex, fold lower than detergent-free monomer [4, 10]: 5-6 fold
- kcat of monomer-micelle complex, fold higher than detergent-free monomer [4, 10]: 8-10 fold
- kcat/Km ([4]; with detergent): up to 1.6×10^8 M^−1. s^−1
- fold increase in kcat/Km after reactivation with detergent micelles [5]: ~50 fold
- fold increase in kcat/Km upon micelle binding [6]: ~50 fold
